According to PMC6017062, “Probing the Inhibitor versus Chaperone Properties of sp^2-Iminosugars towards Human β-Glucocerebrosidase: A Picomolar Chaperone for Gaucher Disease” (Molecules : A Journal of Synthetic Chemistry and Natural …, 2018):

Legend:
[1] = biological target: T1, α-mannosidase from Jack bean (α-Manase) (Canavalia ensiformis, UniProt C0HJB3); experiment: Commercial glycosidase inhibition: α-mannosidase from Jack bean (α-Manase); format: biochemical; conditions: mean ± SD, three determinations; competitive; n.i. = no inhibition detected at 1 mM
T1 construct: purchased
T1 sequence (C0HJB3 1-981): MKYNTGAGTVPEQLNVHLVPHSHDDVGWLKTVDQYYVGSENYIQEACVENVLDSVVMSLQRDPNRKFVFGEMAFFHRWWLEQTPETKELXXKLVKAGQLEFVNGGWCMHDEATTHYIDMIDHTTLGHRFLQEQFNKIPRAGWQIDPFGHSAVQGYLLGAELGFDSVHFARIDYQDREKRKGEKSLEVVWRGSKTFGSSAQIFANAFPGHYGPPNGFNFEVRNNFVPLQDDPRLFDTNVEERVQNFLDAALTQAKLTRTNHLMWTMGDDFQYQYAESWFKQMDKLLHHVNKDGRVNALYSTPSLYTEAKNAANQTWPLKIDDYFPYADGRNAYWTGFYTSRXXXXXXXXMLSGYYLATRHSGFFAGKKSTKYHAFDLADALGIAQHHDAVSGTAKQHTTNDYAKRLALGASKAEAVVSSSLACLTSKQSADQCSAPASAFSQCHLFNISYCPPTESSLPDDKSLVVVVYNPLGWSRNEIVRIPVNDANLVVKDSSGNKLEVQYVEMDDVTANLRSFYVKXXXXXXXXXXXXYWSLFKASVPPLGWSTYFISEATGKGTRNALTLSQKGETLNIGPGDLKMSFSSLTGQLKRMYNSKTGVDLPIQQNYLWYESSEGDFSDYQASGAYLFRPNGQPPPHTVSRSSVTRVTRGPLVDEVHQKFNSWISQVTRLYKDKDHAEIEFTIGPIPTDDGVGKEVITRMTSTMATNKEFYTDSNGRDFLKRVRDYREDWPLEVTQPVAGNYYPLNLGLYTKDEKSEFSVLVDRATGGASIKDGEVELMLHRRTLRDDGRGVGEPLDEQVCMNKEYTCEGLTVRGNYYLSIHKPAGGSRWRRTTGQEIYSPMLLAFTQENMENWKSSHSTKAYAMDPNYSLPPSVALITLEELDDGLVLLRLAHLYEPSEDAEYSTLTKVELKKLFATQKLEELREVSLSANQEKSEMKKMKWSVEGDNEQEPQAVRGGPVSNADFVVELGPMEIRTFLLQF
Source text: (§1) We first evaluated the inhibitory properties of the new nonreducing mono- and bicyclic sp^2-iminosugars 4–15 against a panel of commercial glycosidases that included the α-glucosidases maltase (yeast maltase; α-Glcase1) and isomaltase (α-Glcase2) from Saccharomyces cerevisiae and amyloglucosidase (α-Glcase3) from Aspergillus niger, the β-glucosidases from almonds (β-Glcase1) and bovine liver (β-Glcase2), the α-galactosidase from green coffee beans (α-Galase), the β-galactosidase from Escherichia coli (β-Galase), and the α-mannosidase from Jack bean (α-Manase).
Inhibition constant (Ki) values were determined by spectrophotometrically measuring the residual hydrolytic activities of the glycosidases against the respective o- (for β-galactosidase from E. coli) or p-nitrophenyl α- or β-D-glycopyranoside (for other glycosidases) in the presence of the iminosugars. Each assay was performed in phosphate buffer or phosphate-citrate buffer (for α- or β-mannosidase and amyloglucosidase) at the optimal pH for the enzymes. The reactions were initiated by addition of the enzyme to a solution of the substrate in the absence or presence of various inhibitor concentrations. The mixture was incubated for 10–30 min at 37 °C or 55 °C (for amyloglucosidase) and the reaction was quenched by addition of 1 M Na2CO3. Reaction times were appropriate to obtain 10–20% conversion of the substrate in order to achieve linear rates. The absorbance of the resulting mixture was determined at 405 nm. Approximate value of Ki was determined from the slope of Dixon plots using a fixed concentration of substrate (around the Km value for the different glycosidases) and various concentrations of inhibitor. Full Ki determinations and enzyme inhibition mode were determined from the slope of Lineweaver–Burk plots and double reciprocal analysis.

[2] = test system: β-glucosidases (almonds/bovine enzymes); conditions: 4 compared with its DIJ epimer 7
Source text: as §1
Inhibition constant (Ki) values were determined by spectrophotometrically measuring the residual hydrolytic activities of the glycosidases against the respective o- (for β-galactosidase from E. coli) or p-nitrophenyl α- or β-D-glycopyranoside (for other glycosidases) in the presence of the iminosugars. […] The absorbance of the resulting mixture was determined at 405 nm. Approximate value of Ki was determined from the slope of Dixon plots using a fixed concentration of substrate (around the Km value for the different glycosidases) and various concentrations of inhibitor. Full Ki determinations and enzyme inhibition mode were determined from the slope of Lineweaver–Burk plots and double reciprocal analysis.

N188S/G183W mutant GCase = biological target: T2, N188S/G183W mutant GCase (Homo sapiens, UniProt P04062, N227S); experiment: Chaperone test in N188S/G183W type 3 Gaucher patient fibroblasts; format: cell-based
T2 construct: endogenous in cells; host or cells: skin fibroblasts of N188S/G183W type 3 Gaucher patients
T2 sequence (P04062 40-536 N227S): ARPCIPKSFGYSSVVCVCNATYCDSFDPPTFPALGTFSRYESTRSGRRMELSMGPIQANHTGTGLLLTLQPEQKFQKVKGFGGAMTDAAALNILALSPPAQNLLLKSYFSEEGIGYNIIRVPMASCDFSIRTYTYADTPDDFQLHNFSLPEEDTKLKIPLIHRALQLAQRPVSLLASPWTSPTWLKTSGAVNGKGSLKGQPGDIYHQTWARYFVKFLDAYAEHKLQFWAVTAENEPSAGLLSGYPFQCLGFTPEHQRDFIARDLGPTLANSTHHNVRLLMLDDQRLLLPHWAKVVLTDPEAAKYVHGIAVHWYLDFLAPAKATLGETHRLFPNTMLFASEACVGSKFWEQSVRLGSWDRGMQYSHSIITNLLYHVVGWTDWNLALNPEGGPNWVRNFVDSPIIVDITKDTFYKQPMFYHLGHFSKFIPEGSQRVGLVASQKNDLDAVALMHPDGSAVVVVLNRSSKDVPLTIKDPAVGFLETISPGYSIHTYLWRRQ
Source text: To test the chaperoning capabilities, Gaucher fibroblasts from patients hosting the adult neuronopathic (type 3) Gaucher disease-associated N188S/G183W mutant GCase were employed. It is worth mentioning that the neuronopathic clinical subtypes of Gaucher disease remain currently at orphan status, given the inability of the recombinant enzyme used in enzyme replacement therapy or the glucosylceramide synthase inhibitor Zavesca® used in substrate reduction therapy to cross the blood–brain barrier. This mutation is located in the catalytic domain (domain III) of GCase and has been previously found to be responsive to sp^2-iminosugar-type chaperones. […] Yet, the activity trend as a function of the chaperone concentration was starkly different between them. Thus, the nonreducing representatives 3 and 4 reached the maximum chaperoning effect at 200 nM and as low as 2 nM concentration, respectively, as compared with 20 and 2 μM for the reducing homologues 1 and 2.
Normal and Gaucher disease patients’ skin fibroblasts were cultured in Dulbecco modified Eagle’s medium (WAKO, Richmond, VA, USA) supplemented with 10% fetal bovine serum (Nichirei Biosci. Inc., Tokyo, Japan) at 37 °C in 5% CO2. For measurement of chaperone activities, fibroblasts were plated onto 35 mm dishes at 50,000 cells per dish. After 24 h incubation, the medium with the indicated concentrations of compound was applied and cells were cultured for 96 h. Then, the lysates in 0.1% Triton-X100/distilled H2O were collected from the cells and assayed for lysosomal GCase as described above. To measure the cytotoxic effect of the compounds, normal human fibroblasts were plated onto 35 mm dishes at 15,000 cells per dish and incubated overnight. Then, the medium was changed with or without compounds. After 24 h incubation, the supernatant of the cells was collected and measured by the lactate dehydrogenase assay (WAKO, Richmond, VA, USA). All the cell lines used were tested for mycoplasma contamination before conducting the chaperone and toxicity assays.

[3] = N188S/G183W Gaucher fibroblasts

In the case of `CCCCCCCCN=C1SCC2C(O)C(O)C(O)CN12` (stereo not drawn) [Compound 4, 1-Deoxy-6-thio-5-N,6-S-(N′-octyliminomethylidene)nojirimycin], the “Ki α-Manase” value [1] is reported as “n.i”, the “fold stronger inhibition potency towards the β-glucosidases” value [2] is reported as 100 fold and the “N188S/G183W GCase activity enhancement at 20 pM” value (N188S/G183W mutant GCase; 20 pM, patient fibroblasts) is reported as “over 70%”. The “N188S/G183W GCase activity enhancement at 2 nM” value (N188S/G183W mutant GCase; 2 nM, patient fibroblasts) was 300%, the “concentration of maximum chaperoning effect” value (N188S/G183W mutant GCase; [3]) was 2 nM and the “concentration over which chaperone/inhibitor balance is unfavorable (net decrease in mutant enzyme activity vs control)” value (N188S/G183W mutant GCase; [3]) was > 0.2 µM.
